“Also recorded” adds a separate entry of the source. Where two headings read alike, the source gives them in different places.
Key:
[1] = test system: advanced solid tumor and lymphoma; assay: Tumor response by RECIST 1.1 in patients; format: in vivo, human
Description: Tumor response was evaluated by the Response Evaluation Criteria in Solid Tumors (RECIST) version 1.1. Tumor response was assessed by computed tomography (CT) and/or magnetic resonance imaging (MRI) scans at screening and every 8 weeks (2 cycles) during the first 12 cycles.

[2] = for Treatment-related adverse event: ALT increased / Treatment-related adverse event: AST increased / Treatment-related adverse event: Abdominal pain / Treatment-related adverse event: Amylase increased / Treatment-related adverse event: Blood urea increased / Treatment-related adverse event: Conjugated bilirubin increased / Treatment-related adverse event: Decreased appetite / Treatment-related adverse event: Diarrhea / Treatment-related adverse event: Dysphonia / Treatment-related adverse event: Fatigue / Treatment-related adverse event: Hematuria / Treatment-related adverse event: Hyperbilirubinemia / Treatment-related adverse event: Hypertension / Treatment-related adverse event: Hypertriglyceridemia / Treatment-related adverse event: Hypothyroidism / Treatment-related adverse event: Leucopenia / Treatment-related adverse event: Mouth ulceration / Treatment-related adverse event: Nausea / Treatment-related adverse event: Neutropenia / Treatment-related adverse event: Palmar-plantar erythrodysesthesia syndrome / Treatment-related adverse event: Proteinuria / Treatment-related adverse event: Rash / Treatment-related adverse event: Thrombocytopenia / Treatment-related adverse event: Unconjugated bilirubin increased / Treatment-related adverse event: Vaginal hemorrhage: worst grade per patient in all cycles, N = 18
Description: Patients were enrolled sequentially into dose escalation cohorts using a standard 3 + 3 design, except that only two patients were enrolled at the starting dose. Intra-patient dose escalation was not permitted.
If one of the first three patients at a dose level experienced DLT, up to three additional patients (total up to six patients) were enrolled at that dose level. If more than two patients at a dose level experienced DLT, dose escalation was halted, and the dose level was determined to have exceeded MTD. Three additional patients were then entered on the next lower dose level. MTD was defined as the highest dose with an observed incidence of DLT in no more than one of six patients.
Toxicity was graded according to Common Terminology Criteria for Adverse Events (CTCAE) version 4.0.
Safety assessments included the reporting of all adverse events (AEs), changes in clinical laboratory parameters (hematology, serum chemistries, coagulation, urinalysis), vital sign measurements, 12-lead electrocardiogram (ECG) results, and physical examination findings. In addition, serial measurements of left ventricular ejection fraction, thyroid function, myocardial enzymes, troponin, amylase, and lipase were performed. Twenty-four-hour urine protein was implemented if clinically indicated.
Safety parameters were assessed at baseline and at regular intervals during the study. Adverse events (AEs) were classified/graded weekly according to the CTCAE version 4.0.

COc1ccc2c(Oc3ccc4c(C(=O)Nc5ccccc5N)cccc4c3)ccnc2c1 [chiauranib]
patients achieving SD among six with prior anti-angiogenic agents ([1]; 6/18 patients pretreated with anti-angiogenic agents): five
stable disease (SD) as best response ([1]; 12 of 18 patients, investigator's assessment): 66.7%
complete or partial response ([1]; 18 patients): No complete or partial responses were observed; also recorded: No partial or complete response was observed
duration of confirmed SD ([1]; one patient with DLBCL, 10 mg cohort): 596 days
change in the sum of the longest diameters of target lesions at best response ([1]; one patient with ovarian cancer (65 mg cohort)): 22.2%
patients with DLT (grade 3 hypertension) ([2]; 65 mg/day cohort (n = 4), cycle 1): two
serious adverse events (SAE) reported ([2]; 20-mg dose level, death from pulmonary infection, assessed unlikely related): one
Treatment-related adverse event: ALT increased ([2]; Grade 1): 2 (11.1) n (%)
Treatment-related adverse event: AST increased ([2]; Grade 1): 3 (16.7) n (%)
Treatment-related adverse event: Abdominal pain ([2]; Grade 1): 2 (11.1) n (%)
Treatment-related adverse event: Amylase increased ([2]; Grade 1): 3 (16.7) n (%)
Treatment-related adverse event: Blood urea increased ([2]; Grade 1): 2 (11.1) n (%)
Treatment-related adverse event: Conjugated bilirubin increased ([2]; Grade 1): 5 (27.8) n (%)
Treatment-related adverse event: Decreased appetite ([2]; Grade 1): 0 n (%)
Treatment-related adverse event: Diarrhea ([2]; Grade 1): 2 (11.1) n (%)
Treatment-related adverse event: Dysphonia ([2]; Grade 1): 2 (11.1) n (%)
Treatment-related adverse event: Fatigue ([2]; Grade 1): 7 (38.9) n (%)
Treatment-related adverse event: Hematuria ([2]; Grade 1): 7 (38.9) n (%)
Treatment-related adverse event: Hyperbilirubinemia ([2]; Grade 1): 2 (11.1) n (%)
Treatment-related adverse event: Hypertension ([2]; Grade 1): 3 (16.7) n (%)
Treatment-related adverse event: Hypertriglyceridemia ([2]; Grade 1): 5 (27.8) n (%)
Treatment-related adverse event: Hypothyroidism ([2]; Grade 1): 7 (38.9) n (%)
Treatment-related adverse event: Leucopenia ([2]; Grade 1): 2 (11.1) n (%)
Treatment-related adverse event: Mouth ulceration ([2]; Grade 1): 1 (5.6) n (%)
Treatment-related adverse event: Nausea ([2]; Grade 1): 4 (22.2) n (%)
Treatment-related adverse event: Neutropenia ([2]; Grade 1): 2 (11.1) n (%)
Treatment-related adverse event: Palmar-plantar erythrodysesthesia syndrome ([2]; Grade 1): 1 (5.6) n (%)
Treatment-related adverse event: Proteinuria ([2]; Grade 1): 8 (44.4) n (%)
Treatment-related adverse event: Rash ([2]; Grade 1): 1 (5.6) n (%)
Treatment-related adverse event: Thrombocytopenia ([2]; Grade 1): 2 (11.1) n (%)
Treatment-related adverse event: Unconjugated bilirubin increased ([2]; Grade 1): 2 (11.1) n (%)
Treatment-related adverse event: Vaginal hemorrhage ([2]; Grade 1): 2 (11.1) n (%)
Treatment-related adverse event: ALT increased ([2]; Grade 2): 0 n (%)
Treatment-related adverse event: AST increased ([2]; Grade 2): 0 n (%)
Treatment-related adverse event: Abdominal pain ([2]; Grade 2): 0 n (%)
Treatment-related adverse event: Amylase increased ([2]; Grade 2): 1 (5.6) n (%)
Treatment-related adverse event: Blood urea increased ([2]; Grade 2): 0 n (%)
Treatment-related adverse event: Conjugated bilirubin increased ([2]; Grade 2): 0 n (%)
Treatment-related adverse event: Decreased appetite ([2]; Grade 2): 2 (11.1) n (%)
Treatment-related adverse event: Diarrhea ([2]; Grade 2): 1 (5.6) n (%)
Treatment-related adverse event: Dysphonia ([2]; Grade 2): 0 n (%)
Treatment-related adverse event: Fatigue ([2]; Grade 2): 4 (22.2) n (%)
Treatment-related adverse event: Hematuria ([2]; Grade 2): 0 n (%)
Treatment-related adverse event: Hyperbilirubinemia ([2]; Grade 2): 0 n (%)
Treatment-related adverse event: Hypertension ([2]; Grade 2): 1 (5.6) n (%)
Treatment-related adverse event: Hypertriglyceridemia ([2]; Grade 2): 1 (5.6) n (%)
Treatment-related adverse event: Hypothyroidism ([2]; Grade 2): 0 n (%)
Treatment-related adverse event: Leucopenia ([2]; Grade 2): 1 (5.6) n (%)
Treatment-related adverse event: Mouth ulceration ([2]; Grade 2): 1 (5.6) n (%)
Treatment-related adverse event: Nausea ([2]; Grade 2): 0 n (%)
Treatment-related adverse event: Neutropenia ([2]; Grade 2): 0 n (%)
Treatment-related adverse event: Palmar-plantar erythrodysesthesia syndrome ([2]; Grade 2): 1 (5.6) n (%)
Treatment-related adverse event: Proteinuria ([2]; Grade 2): 0 n (%)
Treatment-related adverse event: Rash ([2]; Grade 2): 1 (5.6) n (%)
Treatment-related adverse event: Thrombocytopenia ([2]; Grade 2): 0 n (%)
Treatment-related adverse event: Unconjugated bilirubin increased ([2]; Grade 2): 0 n (%)
Treatment-related adverse event: Vaginal hemorrhage ([2]; Grade 2): 0 n (%)
Treatment-related adverse event: ALT increased ([2]; Grade 3): 0 n (%)
Treatment-related adverse event: AST increased ([2]; Grade 3): 0 n (%)
Treatment-related adverse event: Abdominal pain ([2]; Grade 3): 0 n (%)
Treatment-related adverse event: Amylase increased ([2]; Grade 3): 0 n (%)
Treatment-related adverse event: Blood urea increased ([2]; Grade 3): 0 n (%)
Treatment-related adverse event: Conjugated bilirubin increased ([2]; Grade 3): 0 n (%)
Treatment-related adverse event: Decreased appetite ([2]; Grade 3): 0 n (%)
Treatment-related adverse event: Diarrhea ([2]; Grade 3): 0 n (%)
Treatment-related adverse event: Dysphonia ([2]; Grade 3): 0 n (%)
Treatment-related adverse event: Fatigue ([2]; Grade 3): 0 n (%)
Treatment-related adverse event: Hematuria ([2]; Grade 3): 0 n (%)
Treatment-related adverse event: Hyperbilirubinemia ([2]; Grade 3): 0 n (%)
Treatment-related adverse event: Hypertension ([2]; Grade 3): 2 (11.1) n (%)
Treatment-related adverse event: Hypertriglyceridemia ([2]; Grade 3): 0 n (%)
Treatment-related adverse event: Hypothyroidism ([2]; Grade 3): 0 n (%)
Treatment-related adverse event: Leucopenia ([2]; Grade 3): 0 n (%)
Treatment-related adverse event: Mouth ulceration ([2]; Grade 3): 0 n (%)
Treatment-related adverse event: Nausea ([2]; Grade 3): 0 n (%)
Treatment-related adverse event: Neutropenia ([2]; Grade 3): 2 (11.1) n (%)
Treatment-related adverse event: Palmar-plantar erythrodysesthesia syndrome ([2]; Grade 3): 0 n (%)
Treatment-related adverse event: Proteinuria ([2]; Grade 3): 0 n (%)
Treatment-related adverse event: Rash ([2]; Grade 3): 0 n (%)
Treatment-related adverse event: Thrombocytopenia ([2]; Grade 3): 0 n (%)
Treatment-related adverse event: Unconjugated bilirubin increased ([2]; Grade 3): 0 n (%)
Treatment-related adverse event: Vaginal hemorrhage ([2]; Grade 3): 0 n (%)
Treatment-related adverse event: ALT increased ([2]; Grade 4): 0 n (%)
Treatment-related adverse event: AST increased ([2]; Grade 4): 0 n (%)
Treatment-related adverse event: Abdominal pain ([2]; Grade 4): 0 n (%)
Treatment-related adverse event: Amylase increased ([2]; Grade 4): 0 n (%)

Reference: PMC6332596 (Journal of Hematology & Oncology, 2019)
